Test results from patent publication US11066396B2 (priority 2016, dated 2021).

How the values were obtained:
[1] = biological target: HDAC8 (Homo sapiens (Human), UniProt Q9BY41); conditions: read-out: HDAC8 IC50
[2] = biological target: HDAC1 (Homo sapiens (Human), UniProt Q13547); conditions: read-out: HDAC1 IC50
Sequence of HDAC1 (Q13547 whole entry): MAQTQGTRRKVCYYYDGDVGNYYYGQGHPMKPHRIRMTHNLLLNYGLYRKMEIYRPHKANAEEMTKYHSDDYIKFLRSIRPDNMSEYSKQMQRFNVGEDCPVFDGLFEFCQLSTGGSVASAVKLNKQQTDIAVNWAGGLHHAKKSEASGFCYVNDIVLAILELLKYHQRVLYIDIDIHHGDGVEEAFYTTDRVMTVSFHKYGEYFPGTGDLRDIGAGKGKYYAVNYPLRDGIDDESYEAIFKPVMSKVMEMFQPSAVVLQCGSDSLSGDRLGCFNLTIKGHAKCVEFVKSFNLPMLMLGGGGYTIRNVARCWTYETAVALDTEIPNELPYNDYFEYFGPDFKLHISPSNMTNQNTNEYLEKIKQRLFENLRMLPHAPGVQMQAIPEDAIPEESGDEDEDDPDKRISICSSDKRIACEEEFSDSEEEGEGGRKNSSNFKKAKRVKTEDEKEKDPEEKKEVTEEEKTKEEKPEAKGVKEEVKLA

Sequence of HDAC8 (Q9BY41 whole entry): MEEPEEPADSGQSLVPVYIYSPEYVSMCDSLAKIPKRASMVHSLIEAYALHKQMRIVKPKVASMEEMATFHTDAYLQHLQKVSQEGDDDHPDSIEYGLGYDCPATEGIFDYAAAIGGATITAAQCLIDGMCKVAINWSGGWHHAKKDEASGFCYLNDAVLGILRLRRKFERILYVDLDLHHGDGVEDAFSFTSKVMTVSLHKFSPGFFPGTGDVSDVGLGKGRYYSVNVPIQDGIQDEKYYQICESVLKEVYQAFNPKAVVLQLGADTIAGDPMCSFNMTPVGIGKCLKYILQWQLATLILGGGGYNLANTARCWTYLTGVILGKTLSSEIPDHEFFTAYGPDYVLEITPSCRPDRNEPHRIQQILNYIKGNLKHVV

Row | Structure (SMILES) | IC50 [1] [µM] | IC50 [2] [µM]
1 | O=C1CC[C@@H](c2nc3ccccc3o2)N1c1ccc(-c2noc(C(F)(F)F)n2)cc1 [Example 104, (S)-5-(benzo[d]oxazol-2-yl)-1-(4-(5-(trifluoromethyl)-1,2,4-oxadiazol-3-yl)phenyl)pyrrolidin-2-one] | 0.44 | 0.12
2 | Cn1c([C@@H]2CCC(=O)N2c2ccc(-c3noc(C(F)(F)F)n3)cc2F)nc2ccccc21 [Example 107, (S)-1-(2-fluoro-4-(5-(trifluoromethyl)-1,2,4-oxadiazol-3-yl)phenyl)-5-(1-methyl-1H-benzo[d]imidazol-2-yl)pyrrolidin-2-one] | 2.2 | 0.3
3 | CNc1ccccc1NC(=O)[C@@H]1CCC(=O)N1c1ccc(-c2noc(C(F)(F)F)n2)cc1 [Example 109, (S)-N-(2-(methylamino)phenyl)-5-oxo-1-(4-(5-(trifluoromethyl)-1,2,4-oxadiazol-3-yl)phenyl)pyrrolidine-2-carboxamide] | 2.3 | 1
4 | O=C1CC[C@@H](c2nc(-c3cccnc3)no2)N1c1ccc(-c2noc(C(F)(F)F)n2)cc1 [Example 113, (S)-5-(3-(pyridin-3-yl)-1,2,4-oxadiazol-5-yl)-1-(4-(5-(trifluoromethyl)-1,2,4-oxadiazol-3-yl)phenyl)pyrrolidin-2-one] | 0.41 | 0.13
5 | O=C1CC[C@@H](c2nc(-c3ccncc3)no2)N1c1ccc(-c2noc(C(F)(F)F)n2)cc1 [Example 114, (S)-5-(3-(pyridin-4-yl)-1,2,4-oxadiazol-5-yl)-1-(4-(5-(trifluoromethyl)-1,2,4-oxadiazol-3-yl)phenyl)pyrrolidin-2-one] | 0.27 | 0.082
6 | O=C1CCC(c2ccccc2)N1c1ccc(-c2noc(C(F)(F)F)n2)cc1 (centres unmarked) [Example 115, 5-phenyl-1-(4-(5-(trifluoromethyl)-1,2,4-oxadiazol-3-yl)phenyl)pyrrolidin-2-one] | 0.92 | 1
7 | O=C1CCC(c2ccc(Cl)cc2)N1c1ccc(-c2noc(C(F)(F)F)n2)cc1F (centres unmarked) [Example 119, 5-(4-chlorophenyl)-1-(2-fluoro-4-(5-(trifluoromethyl)-1,2,4-oxadiazol-3-yl)phenyl)pyrrolidin-2-one] | 1.3 | 0.72
8 | Cc1noc([C@H]2CCCCN2c2cc(F)c(-c3noc(C(F)(F)F)n3)cc2F)n1 [Example 121, (R)-3-(2,5-difluoro-4-(2-(3-methyl-1,2,4-oxadiazol-5-yl)piperidin-1-yl)phenyl)-5-(trifluoromethyl)-1,2,4-oxadiazole] | 29 | 26
9 | Cc1noc([C@@H]2CCC(=O)N2c2ccc(-c3noc(C(F)(F)F)n3)cc2F)n1 [Example 123, (S)-1-(2-fluoro-4-(5-(trifluoromethyl)-1,2,4-oxadiazol-3-yl)phenyl)-5-(3-methyl-1,2,4-oxadiazol-5-yl)pyrrolidin-2-one] | 5.2 | 1
10 | CC(C)(C)OC(=O)[C@@H]1CCC(=O)N1c1ccc(-c2noc(C(F)(F)F)n2)cc1F [Example 125, tert-butyl (S)-1-(2-fluoro-4-(5-(trifluoromethyl)-1,2,4-oxadiazol-3-yl)phenyl)-5-oxopyrrolidine-2-carboxylate] | 6.2 | 0.43
11 | O=C1CCCC(c2ccccc2)N1c1ccc(-c2noc(C(F)(F)F)n2)cn1 (centres unmarked) [Example 128, 6-phenyl-1-(5-(5-(trifluoromethyl)-1,2,4-oxadiazol-3-yl)pyridin-2-yl)piperidin-2-one] | 5.1 | 2.9
12 | CN1CCN(c2ccc(-c3noc(C(F)(F)F)n3)cn2)[C@@H](c2ccccc2)C1 [Example 134, (S)-3-(6-(4-methyl-2-phenylpiperazin-1-yl)pyridin-3-yl)-5-(trifluoromethyl)-1,2,4-oxadiazole] | 2.1 | 0.36
13 | Cc1cccc(CCOc2cc(-c3noc(C(F)(F)F)n3)ccn2)n1 [Example 139, 3-(2-(2-(6-methylpyridin-2-yl)ethoxy)pyridin-4-yl)-5-(trifluoromethyl)-1,2,4-oxadiazole] | 4.6 | 3.4
14 | FC(F)(F)c1nc(-c2ccc(N3CCOC[C@@H]3c3ccccc3)nc2)no1 [Example 141, (S)-3-phenyl-4-(5-(5-(trifluoromethyl)-1,2,4-oxadiazol-3-yl)pyridin-2-yl)morpholine] | 1.8 | 0.35
15 | FC(F)(F)c1nc(-c2ccc(N3CCOCC3c3cccnc3)nc2)no1 (centres unmarked) [Example 143, 3-(pyridin-3-yl)-4-(5-(5-(trifluoromethyl)-1,2,4-oxadiazol-3-yl)pyridin-2-yl)morpholine] | 2.8 | 6.2
16 | O=C1NCCN(c2ccc(-c3noc(C(F)(F)F)n3)cn2)C1c1cccc(F)c1 (centres unmarked) [Example 153, 3-(3-fluorophenyl)-4-(5-(5-(trifluoromethyl)-1,2,4-oxadiazol-3-yl)pyridin-2-yl)piperazin-2-one] | 0.28 | 0.124
17 | O=C1COC[C@@H](c2ccccc2)N1c1ccc(-c2noc(C(F)(F)F)n2)cc1F [Example 161, (R)-4-(2-fluoro-4-(5-(trifluoromethyl)-1,2,4-oxadiazol-3-yl)phenyl)-5-phenylmorpholin-3-one] | 2.1 | 0.39

Row | Structure (SMILES) | IC50 [1] [µM] | IC50 [2] [µM]
18 | CN1CC(=O)N(c2ccc(-c3noc(C(F)(F)F)n3)cc2)C(c2ccccc2)C1 (centres unmarked) [Example 162, 4-methyl-6-phenyl-1-(4-(5-(trifluoromethyl)-1,2,4-oxadiazol-3-yl)phenyl)piperazin-2-one] | 1.4 | 0.85
19 | O=C1COC[C@@H](c2ccccc2)N1c1cnc(-c2noc(C(F)(F)F)n2)cn1 [Example 164, (R)-5-phenyl-4-(5-(5-(trifluoromethyl)-1,2,4-oxadiazol-3-yl)pyrazin-2-yl)morpholin-3-one] | 6.1 | 2.9
20 | O=C1COC[C@@H](c2ccccc2)N1c1ccc(-c2noc(C(F)(F)F)n2)nn1 [Example 165, (R)-5-phenyl-4-(6-(5-(trifluoromethyl)-1,2,4-oxadiazol-3-yl)pyridazin-3-yl)morpholin-3-one] | 21 | 28
21 | NC(=O)c1ccccc1NCc1ccc(-c2noc(C(F)(F)F)n2)cn1 [Example 174, 2-(((5-(5-(Trifluoromethyl)-1,2,4-oxadiazol-3-yl)pyridin-2-yl)methyl)amino)benzamide] | 0.7 | 0.3
22 | O=C1CC[C@@H](CO)N1c1ccc(-c2noc(C(F)(F)F)n2)c(F)c1 [Example 188, (S)-1-(3-Fluoro-4-(5-(trifluoromethyl)-1,2,4-oxadiazol-3-yl)phenyl)-5-(hydroxymethyl)pyrrolidin-2-one] | 0.038 | 0.38
23 | O=C1CC[C@@H](CN2CCOCC2)N1c1ccc(-c2noc(C(F)(F)F)n2)c(F)c1 [Example 189, (S)-1-(3-Fluoro-4-(5-(trifluoromethyl)-1,2,4-oxadiazol-3-yl)phenyl)-5-(morpholinomethyl)pyrrolidin-2-one] | 6.9 | 15
24 | FC(F)(F)c1nc(-c2ccnc(OCc3ccno3)c2)no1 [Example 207, 2-(isoxazol-5-ylmethoxy)-4-[5-(trifluoromethyl)-1,2,4-oxadiazol-3-yl]pyridine] | 1.3 | 1.5
25 | FC(F)(F)c1nc(-c2ccnc(OCc3cnn4c3OCCC4)c2)no1 [Example 209, 3-[({4-[5-(trifluoromethyl)-1,2,4-oxadiazol-3-yl]pyridin-2-yl}oxy)methyl]-6,7-dihydro-5H-pyrazolo[5,1-b][1,3]oxazine] | 4.4 | 6.8
26 | Cn1nccc1COc1cc(-c2noc(C(F)(F)F)n2)ccn1 [Example 221, 2-[(1-methyl-1H-pyrazol-5-yl)methoxy]-4-[5-(trifluoromethyl)-1,2,4-oxadiazol-3-yl]pyridine] | 1.6 | 2.8
27 | Cc1nc(COc2cc(-c3noc(C(F)(F)F)n3)ccn2)no1 [Example 225, 2-[(5-methyl-1,2,4-oxadiazol-3-yl)methoxy]-4-[5-(trifluoromethyl)-1,2,4-oxadiazol-3-yl]pyridine] | 0.62 | 1.5
28 | Cn1c(OCc2ccc(-c3noc(C(F)(F)F)n3)c(F)c2)nc2ccccc21 [Example 235, 2-({3-fluoro-4-[5-(trifluoromethyl)-1,2,4-oxadiazol-3-yl]phenyl}methoxy)-1-methyl-1H-benzimidazole] | 0.77 | 0.52
29 | Cn1c(OCc2ccc(-c3noc(C(F)(F)F)n3)c(F)c2)nc2cccnc21 [Example 238, 2-({3-fluoro-4-[5-(trifluoromethyl)-1,2,4-oxadiazol-3-yl]phenyl}methoxy)-3-methyl-3H-imidazo[4,5-b]pyridine] | 1.3 | 0.51
30 | Fc1cc(COc2nc[nH]n2)ccc1-c1noc(C(F)(F)F)n1 [Example 247, 3-(2-fluoro-4-{[(1H-1,2,4-triazol-3-yl)oxy]methyl}phenyl)-5-(trifluoromethyl)-1,2,4-oxadiazole] | 1.4 | 5.5
31 | O=c1ccc2ccc(Br)cc2n1Cc1ccc(-c2noc(C(F)(F)F)n2)cc1 [Example 321, 7-bromo-1-{4-[5-(trifluoromethyl)-1,2,4-oxadiazol-3-yl]benzyl}quinolin-2(1H)-one] | 2.6 | 0.21
32 | Fc1ccc2ccc(OCc3ccc(-c4noc(C(F)(F)F)n4)cn3)nc2c1 [Example 326, 7-fluoro-2-({5-[5-(trifluoromethyl)-1,2,4-oxadiazol-3-yl]pyridin-2-yl}methoxy)quinoline] | 45 | 35
33 | O=C1CCC(c2ccc(-c3noc(C(F)(F)F)n3)cc2)N1c1ccccc1F (centres unmarked) [Example 329] | 7.9 | 3.9
34 | O=C1CCc2cccnc2N1Cc1ccc(-c2noc(C(F)(F)F)n2)cn1 [Example 330, 1-({5-[5-(trifluoromethyl)-1,2,4-oxadiazol-3-yl]pyridin-2-yl}methyl)-3,4-dihydro-1,8-naphthyridin-2(1H)-one] | 18 | 3.7
